Patent US11434241B2, “Pyrimidine derivatives for prevention and treatment of bacterial infections” (UNIVERSITE DE LIEGE, priority 2018, dated 2022)
Converted amounts (≈) assume the structure as drawn. Where two headings read alike, the source gives them in different places.

What was measured:
[1] = system: Staphylococcus epidermidis (ATCC 35984, also known as RP62A or MRSE); experiment: MIC determination on S. epidermidis (EUCAST, OD600 after overnight growth in MHB); format: cell-based
Experimental: The Minimal Inhibitory Concentration (MIC) of molecules 2329, 2348, 2412, 2452 and 2461 was determined on Staphylococcus epidermidis (ATCC 35984, also known as RP62A) according to EUCAST (European Committee on Antimicrobial Susceptibility Testing) recommendations.
Briefly, a single colony grown on a Tryptic Soy Agar (TSA) plate was resuspended and cultured in Tryptic Soy Broth (TSB) overnight (O/N) in aerobic conditions (37° C. with 220 rpm shaking), next day a 1:50 inoculum in Mueller-Hinton broth (MHB) was incubated in aerobic conditions for 3 hr and an inoculum of 1:100 dilution, corresponding to 3×10^5 CFU/ml, was incubated in presence or absence of different concentrations of the molecules in 1% DMSO (vehicle). After O/N growth the OD of each culture was measured at 600 nm in a spectrophotometer (OD600). The MIC represents the concentration at which there is no visible growth of bacteria, i.e. ΔOD at 600 nm equal to zero (blank is the medium alone).
The Minimal Inhibitory Concentration (MIC) of pyrazolopyrimidine molecules 2539, 2544, 2666,2676, 2693, 2783, 2784 and 2782 and of purine molecules 2498, 2511, 2525, 2527, 2833, and 2840 was determined on S. epidermidis (ATCC 35984, also known as RP62A or MRSE) according to EUCAST (European Committee on Antimicrobial Susceptibility Testing) recommendations.
Briefly, a single colony grown on an agar plate was resuspended and cultured in Triptic Soy Broth (TSB) medium overnight (O/N) in aerobic conditions (37° C. with 220 rpm shaking), next day a 1:50 inoculum in Mueller-Hinton broth (MHB) was incubated in aerobic conditions for 3 hr (OD=0.08-0.1) and an inoculum of 1:300 dilution, corresponding to 3×10^5 CFU/ml, was incubated in presence or absence of different concentrations of each of the molecules in 1% DMSO (vehicle). After O/N growth the OD of each culture was measured at 600 nm (600) in a spectrophotometer (Victor 3-Perkin Elmer). The MIC represents the concentration at which there is no visible growth of bacteria, i.e. ΔOD at 600 nm equal to zero (where ΔOD is the difference between the OD with the molecule and the OD of the blank, the medium alone).
(§1) Molecule 36z has been tested for its potential antibacterial activity by determining its minimal inhibitory concentration (MIC) according to protocols recommended by EUCAST to assess the efficacy of antibiotics against bacterial strains. In brief MIC in MRSA (ATCC BAA-1556) or in Xen29 (Perkin Elmer-ATCC 12600) for 36z (molecule 25 in WO2009/034386) was determined by culturing a single colony of MRSA or Xen29 in brain heart infusion (BHI) broth overnight (O/N) in aerobic conditions (37° C. with 220 rpm shaking), while MIC for MRSE (ATCC 35984) was determined by culturing MRSE in TSB O/N. Next day a 1:100 inoculum in Mueller-Hinton broth (MHB) is incubated in aerobic conditions for 3 hr (OD=0.08-0.1) and an inoculum of 1:300 dilution, corresponding to 3×10^5 CFU/ml, is incubated in presence or absence of different concentrations of the tested molecules in 1% DMSO. After O/N growth the OD of each culture was measured at 600 nm (OD600) in a spectrophotometer (Victor 3-Perkin Elmer). The MIC represents the concentration at which there is no visible growth of bacteria, i.e. ΔOD at 600 nm equal to zero (blank is the medium alone). No antibacterial activity was found against MRSA (ATCC BAA-1556), Xen29 (Perkin Elmer-ATCC 12600 or MRSE (ATCC 35984) strains when the molecule was used at concentrations up to 200 μM.

[2] = system: S. aureus Xen29 (ATCC 12600); experiment: MIC determination on bioluminescent S. aureus Xen29; format: cell-based, Staphylococcus aureus; details: Staphylococcus aureus
Experimental: (§2) Further experiments are conducted using different strains of S. aureus, as clinically relevant Gram-positive bacterial strains: S. aureus ATCC 25904, methicillin-resistant S. aureus (MRSA) ATCC BAA-1556, Glycopeptide intermediate-resistant (GISA) S. aureus Mu-50 (ATCC 700695) in order to determine the Minimal Inhibitory Concentration (MIC) which is the minimal concentration required to prevent bacterial growth. The bioluminescent strain S. aureus Xen29 (ATCC 12600) was also used. This strain is derived from the parental strain S. aureus ATCC 12600, a pleural fluid isolate, which is also designated as NCTC8532.
(§3) A single colony selected from the different strains of S. aureus is resuspended and cultured in brain heart infusion (BHI) broth overnight (O/N) in aerobic conditions (37° C. with 220 rpm shaking), next day a 1:100 inoculum in Mueller-Hinton broth (MHB) is incubated in aerobic conditions for 3 hr (=OD0.08-0.1) and an inoculum of 1:300 dilution, corresponding to 3×10^5 CFU/ml, is incubated in presence or absence of different concentrations of the tested molecules in 1% DMSO. After O/N growth the OD of each culture was measured at 600 nm (OD600) in a spectrophotometer (Victor 3-Perkin Elmer). The MIC represents the concentration at which there is no visible growth of bacteria, i.e. ΔOD at 600 nm equal to zero (blank is the medium alone). […] The MIC of molecule 2329 against Glycopeptide intermediate-resistant (GISA) S. aureus Mu-50 (ATCC 700695) is in between 25 and 30 μM, while it is above 50 μM for molecules 2348, 2412, and 2452.
(§4) Further experiments are conducted using different strains of S. aureus, as clinically relevant Gram-positive bacterial strains: methicillin-resistant S. aureus (MRSA) ATCC BAA-1556 and S. aureus Xen29 (Perkin Elmer ATCC 12600).
(§5) To determine the MIC of the above mentioned molecules in MRSA or in Xen29, a single colony of MRSA or Xen29 is resuspended and cultured in brain heart infusion (BHI) broth overnight (O/N) in aerobic conditions (37° C. with 220 rpm shaking), next day a 1:100 inoculum in Mueller-Hinton broth (MHB) is incubated in aerobic conditions for 3 hr (OD=0.08-0.1) and an inoculum of 1:300 dilution, corresponding to 3×10^5 CFU/ml, is incubated in presence or absence of different concentrations of the tested molecules in 1% DMSO. After O/N growth the OD of each culture was measured at 600 nm (OD600) in a spectrophotometer (Victor 3-Perkin Elmer). The MIC represents the concentration at which there is no visible growth of bacteria, i.e. ΔOD at 600 nm equal to zero (blank is the medium alone).
as §1

[3] = system: methicillin-resistant S. aureus (MRSA) ATCC BAA-1556; experiment: MIC determination on methicillin-resistant S. aureus; format: cell-based, Staphylococcus aureus; details: for MIC: Staphylococcus aureus; for antibacterial activity against MRSA (in words): MHB medium
Experimental: as §2, §3, §4, §5, §1

[4] = system: Murl isozyme from E. faecium; details: Table 9 of WO2009/034386; cited from earlier work
[5] = biological target: Murl isozyme from E. faecalis (Enterococcus faecalis, UniProt Q836J0); details: read-out: IC50 Murl isozyme from E. faecalis; Table 9 of WO2009/034386; cited from earlier work
Sequence of Murl isozyme from E. faecalis (Q836J0 whole entry): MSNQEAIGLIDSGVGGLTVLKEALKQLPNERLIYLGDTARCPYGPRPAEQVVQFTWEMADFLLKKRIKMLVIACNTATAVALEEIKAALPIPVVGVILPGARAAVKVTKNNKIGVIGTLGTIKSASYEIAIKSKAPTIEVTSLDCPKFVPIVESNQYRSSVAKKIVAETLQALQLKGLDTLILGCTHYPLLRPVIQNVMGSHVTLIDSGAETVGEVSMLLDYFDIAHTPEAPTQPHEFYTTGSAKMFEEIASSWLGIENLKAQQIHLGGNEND

[6] = system: S. aureus ATCC 25904; experiment: MIC determination on S. aureus ATCC 25904; format: cell-based; details: Staphylococcus aureus, ATCC25904, read-out: MIC S. aureus ATCC25904
Experimental: as §2, §3

[7] = system: vancomycin-resistant (VRE) E. faecalis ATCC BAA-2365; experiment: MIC determination on vancomycin-resistant E. faecalis; format: cell-based, Enterococcus faecalis; details: Mueller-Hinton broth (MHB)
Experimental: Further experiments were conducted using the clinically relevant Gram-positive bacterial strain of vancomycin-resistant (VRE) E. faecalis ATCC BAA-2365, in order to determine the Minimal Inhibitory Concentration (MIC) which is the minimal concentration required to prevent bacterial growth.
A single colony selected from E. faecalis VRE is resuspended and cultured in the brain heart infusion (BHI) broth overnight (O/N) in aerobic conditions (37° C. with 220 rpm shaking), next day a 1:100 inoculum in Mueller-Hinton broth (MHB) is incubated in aerobic conditions for 3 hr (OD=0.08-0.1) and an inoculum of 1:300 dilution, corresponding to 3×10^5 CFU/ml, is incubated in presence or absence of different concentrations of the tested molecules in 1% DMSO. After O/N growth the OD of each culture is measured at 600 nm (OD600) in a spectrophotometer (Victor 3-Perkin Elmer). The MIC represents the concentration at which there is no visible growth of bacteria, i.e. ΔOD at 600 nm equal to zero (blank is the medium alone).

[8] = system: MRSE; experiment: Minimal Bactericidal Concentration (MBC) for MRSE; format: cell-based, Staphylococcus epidermidis
Experimental: We have determined the Minimal Bactericidal Concentration (MBC) of the pyrazolopyrimidine molecule 2666 for the MRSA strain and the MBC of the purine molecules 2329 and 2833 for MRSA and the MRSE strain respectively.
To determine the MBC, bacteria were grown as per MIC determination in presence of the pyrazolopyrimidine molecule 2666 for MRSA or in presence of the purine molecule 2833 for MRSE or 2329 for MRSA. At 24 hours bacteria were plated on TSB agar plates by the broth microdilution method, and colonies formed on the plates were counted next day.
The MBC represents the lowest concentration at which 99.9% bacteria of the initial inoculum are killed over 24 hours.

[9] = Staphylococcus epidermidis, read-out: MIC MRSE (comparison molecules of WO2009/034386)
[10] = ATCC12600, read-out: MIC Xen29 (comparison molecules of WO2009/034386)
[11] = read-out: MIC MRSA (comparison molecules of WO2009/034386)

Compound: CCCCOc1nc(NCc2cccnc2)c2ncn(Cc3c(F)ccc(Cl)c3F)c2n1 [37z″, 2-Butoxy-9-(3-chloro-2,6-difluorobenzyl)-N-(pyridin-3-ylmethyl)-9H-purin-6-amine, reference compound]
- MIC [1, 9]: > 200 µM
- MIC [2, 10]: > 200 µM
- MIC [3, 11]: > 200 µM
- IC50 [4]: 5 µM

Compound: CCCCSc1nc(N)c2ncn(Cc3c(F)ccc(Cl)c3F)c2n1 [Molecule 36z, 2-(Butylthio)-9-(3-chloro-2,6-difluorobenzyl)-9H-purin-6-amine, reference compound]
- MIC [1, 9]: > 200 µM
- MIC [2, 10]: > 200 µM
- MIC [3, 11]: > 200 µM
- IC50 [5]: 2 µM
- IC50 [4]: 5 µM

Compound: CCCSc1nc(N[C@@H]2C[C@H]2c2ccc(F)c(F)c2)c2ncn([C@@H]3C[C@H](O)[C@@H](O)[C@H]3O)c2n1 [Molecule 2461, (1S,2R,3S,4R)-4-(6-(((1R,2S)-2-(3,4-difluorophenyl)cyclopropyl)amino)-2-(propylthio)-9H-purin-9-yl)cyclopentane-1,2,3-triol]
- MIC ([1]; Staphylococcus epidermidis, Mueller-Hinton broth (MHB), read-out: MIC S. epidermidis RP62): 20 µM (≈ 9.55 µg/mL)
- MIC [6]: 20 to 25 µM (≈ 9.55 to 11.9 µg/mL)
- MIC ([2]; ATCC12600, read-out: MIC S. aureus Xen29): 20 to 25 µM (≈ 9.55 to 11.9 µg/mL)
- MIC ([3]; read-out: MIC S. aureus MRSA): 25 µM (≈ 11.9 µg/mL)
- MIC [7]: 25 µM (≈ 11.9 µg/mL)

Compound: CCCn1ncc2c(N[C@@H]3C[C@H]3c3ccc(F)c(F)c3)nc(SC)nc21.Cl [Molecule 2693, N-((1R,2S)-2-(3,4-difluorophenyl)cyclopropyl)-6-(methylthio)-1-propyl-1H-pyrazolo[3,4-d]pyrimidin-4-amine hydrochloride]
- MIC ([1]; MHB medium, tested up to 100 μM, hydrochloride, read-out: MIC MRSE): >100 µM
- MIC ([1]; Staphylococcus epidermidis, read-out: MIC MRSE): > 100 µM
- MIC ([2]; ATCC12600, read-out: MIC Xen29): > 100 µM
- antibacterial activity against MRSA (in words) [3]: active
- MIC ([3]; read-out: MIC MRSA): 20 µM

Compound: CCCCSc1nc(N[C@@H]2C[C@H]2c2ccc(F)c(F)c2)c2ncn(C)c2n1 [Molecule 2833, 2-(butylthio)-N-((1R,2S)-2-(3,4-difluorophenyl)cyclopropyl)-9-methyl-9H-purin-6-amine]
- antibacterial activity / inhibition of MRSE growth (in words) ([1]; MHB medium): able to inhibit MRSE growth
- MIC ([1]; Staphylococcus epidermidis, MHB medium, tested up to 100 μM, read-out: MIC MRSE): 30 µM (≈ 11.7 µg/mL)
- antibacterial activity against MRSA (in words) [3]: active
- MIC ([3]; read-out: MIC MRSA): 50 µM (≈ 19.5 µg/mL)
- MBC relative to MIC, MRSE [8]: around 2 times
- MBC ([8]; Staphylococcus epidermidis, MRSE, 99.9% of initial inoculum killed over 24 hours): 50 µM (≈ 19.5 µg/mL)
